Measured values from the NIST ThermoML archive (doi:10.1016/j.jct.2005.03.007).

Experiment: Solid-liquid equilibrium temperature
Details: Crystal

c1ccccc1 [benzene]
pressure-volume curve discontinuity
Details | Solid-liquid equilibrium temperature [K]
53620 kPa | 293.15
92220 kPa | 303.15
133290 kPa | 313.15
176820 kPa | 323.15
222810 kPa | 333.15
271270 kPa | 343.15
322200 kPa | 353.15

CCCCCCCCCCCCCCCC [hexadecane]
pressure-volume curve discontinuity
Details | Solid-liquid equilibrium temperature [K]
9210 kPa | 293.15
50650 kPa | 303.15
95560 kPa | 313.15
143920 kPa | 323.15
195740 kPa | 333.15
251030 kPa | 343.15

CCCCCCCCCCCCCCCCCC [octadecane]
pressure-volume curve discontinuities
Details | Solid-liquid equilibrium temperature [K]
8860 kPa | 303.15
49600 kPa | 313.15
94900 kPa | 323.15
144780 kPa | 333.15
199220 kPa | 343.15
258230 kPa | 353.15
